According to ChEMBL document CHEMBL1201862, “PubChem BioAssay data set” (2004):
Calls of active or inactive are those of the source.

What was measured:
[1] = molecular target: T1, Coagulation factor XII (Homo sapiens, UniProt P00748); assay: Factor XIIa Dose Response Confirmation from Single Well HTS. [Related pubchem assays (depositor defined):AID701]; type: functional
T1 sequence (P00748 whole entry): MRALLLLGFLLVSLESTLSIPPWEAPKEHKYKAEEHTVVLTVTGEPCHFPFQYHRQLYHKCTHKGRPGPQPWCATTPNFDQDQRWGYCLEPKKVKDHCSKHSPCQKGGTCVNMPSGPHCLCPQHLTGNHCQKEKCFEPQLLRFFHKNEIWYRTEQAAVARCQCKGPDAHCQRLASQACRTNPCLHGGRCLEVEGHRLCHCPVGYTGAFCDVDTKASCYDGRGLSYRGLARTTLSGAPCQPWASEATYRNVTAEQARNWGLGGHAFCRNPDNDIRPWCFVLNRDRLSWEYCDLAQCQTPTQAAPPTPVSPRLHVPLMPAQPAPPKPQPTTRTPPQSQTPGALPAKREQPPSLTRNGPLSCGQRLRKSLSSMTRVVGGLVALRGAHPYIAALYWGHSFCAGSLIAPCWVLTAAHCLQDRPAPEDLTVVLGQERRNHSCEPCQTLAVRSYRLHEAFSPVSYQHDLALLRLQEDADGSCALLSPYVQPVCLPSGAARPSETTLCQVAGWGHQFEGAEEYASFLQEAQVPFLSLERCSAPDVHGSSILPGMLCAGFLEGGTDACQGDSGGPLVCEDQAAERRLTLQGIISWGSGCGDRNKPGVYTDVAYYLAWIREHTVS

[2] = system: H9c2; assay: cells; type: functional, cell-based; conditions: Rattus norvegicus, H9c2, Myocardium;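 note: confirmatory concentration-response retest of ultra-high-throughput screening hits for modulation of myocardial damage; cell death induced by hydrogen peroxide oxidative stress; compound pretreatment for 60 min then peroxide exposure for 2 h; potency is for protecting the cells against peroxide damage rather than for killing them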
[3] = molecular target: T2, Voltage-gated N-type calcium channel alpha-1B subunit/Amyloid beta A4 precursor protein-binding family A member 1 (Homo sapiens, UniProt Q00975+Q02410); type: protein assay
[4] = molecular target: T3, Estrogen receptor (Homo sapiens, UniProt P03372);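 note: potency for inhibiting coactivator peptide recruitment to the receptor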
T3 sequence (P03372 whole entry): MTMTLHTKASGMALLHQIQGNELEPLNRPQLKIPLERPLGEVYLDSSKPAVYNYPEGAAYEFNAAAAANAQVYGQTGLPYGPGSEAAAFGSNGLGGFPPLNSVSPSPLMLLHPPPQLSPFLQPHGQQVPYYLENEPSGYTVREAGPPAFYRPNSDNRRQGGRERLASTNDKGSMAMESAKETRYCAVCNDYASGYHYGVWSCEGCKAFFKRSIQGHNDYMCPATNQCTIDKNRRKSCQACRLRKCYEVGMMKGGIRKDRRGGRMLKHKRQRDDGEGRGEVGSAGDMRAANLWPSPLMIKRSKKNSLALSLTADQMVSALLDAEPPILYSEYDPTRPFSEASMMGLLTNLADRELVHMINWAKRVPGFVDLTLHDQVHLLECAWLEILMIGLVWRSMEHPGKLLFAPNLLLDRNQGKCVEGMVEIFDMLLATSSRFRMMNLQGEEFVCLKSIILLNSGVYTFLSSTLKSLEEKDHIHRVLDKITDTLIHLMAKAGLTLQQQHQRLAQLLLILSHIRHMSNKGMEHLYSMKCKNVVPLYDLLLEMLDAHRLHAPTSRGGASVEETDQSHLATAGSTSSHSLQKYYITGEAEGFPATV

[5] = molecular target: T2, Voltage-gated N-type calcium channel alpha-1B subunit/Amyloid beta A4 precursor protein-binding family A member 1; type: protein assay; remark: listed apart in the source
[6] = inhibitors of intracellular T. cruzi replication, confirmation, NIH3T3 host cells, beta-gal luminescence (AID 2044); type: functional, cell-based;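 note: intracellular parasites grown in NIH/3T3 mouse fibroblasts as host cells; luminescent beta-galactosidase reporter signal from transgenic T. cruzi replicating inside host cells; inhibitors lower the luminescence signal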
[7] = microbe, parasite or virus in culture; type: functional; conditions: Mycobacterium tuberculosis
[8] = cytotoxicity toward NIH3T3 fibroblasts, dose response, counter-screen, cell-based, ATP luminescence, mouse fibroblasts (AID 2010); type: functional;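 note: cells exposed to compound for about 90 hours before reading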
[9] = molecular target: T4, Beta-galactosidase (Escherichia coli, UniProt Q8VNN2); assay: beta-galactosidase enzyme inhibitors and activators, dose response, artefact control for CCR6 antagonist project, biochemical, E. coli enzyme, set 3 (AID 504712); type: functional
[10] = molecular target: G-protein coupled receptor 55 (Homo sapiens, UniProt Q9Y2T6); assay: GPR55 agonists via beta-arrestin recruitment, primary screen, imaging, U2OS cells, beta-arrestin-GFP redistribution (AID 1961); type: functional
[11] = molecular target: Disintegrin and metalloproteinase domain-containing protein 17 (Homo sapiens, UniProt P78536); assay: exosite inhibitors of ADAM17, dose response, biochemical (AID 743260)
[12] = ADAM10 protease inhibitors, dose response, selectivity assay for ADAM17 exosite inhibitor project, biochemical, FRET peptide substrate, recombinant human ADAM10 (AID 743259);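 note: ADAM10 enzyme cleaving a FRET peptide substrate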
[13] = Intein inhibitors as potential Tuberculosis drugs, a cytotoxicity screen. [Related pubchem assays (depositor defined):AID2221, AID2223, AID434968, AID435010, AID449749, AID449750, AID489010]; type: functional
[14] = molecular target: T5, Replicative DNA helicase DnaB (Mycobacterium tuberculosis, UniProt P9WMR3); assay: DnaB intein splicing inhibitors, dose response, biochemical, cell-free fluorescence (AID 449749); type: functional
T5 sequence (P9WMR3 whole entry): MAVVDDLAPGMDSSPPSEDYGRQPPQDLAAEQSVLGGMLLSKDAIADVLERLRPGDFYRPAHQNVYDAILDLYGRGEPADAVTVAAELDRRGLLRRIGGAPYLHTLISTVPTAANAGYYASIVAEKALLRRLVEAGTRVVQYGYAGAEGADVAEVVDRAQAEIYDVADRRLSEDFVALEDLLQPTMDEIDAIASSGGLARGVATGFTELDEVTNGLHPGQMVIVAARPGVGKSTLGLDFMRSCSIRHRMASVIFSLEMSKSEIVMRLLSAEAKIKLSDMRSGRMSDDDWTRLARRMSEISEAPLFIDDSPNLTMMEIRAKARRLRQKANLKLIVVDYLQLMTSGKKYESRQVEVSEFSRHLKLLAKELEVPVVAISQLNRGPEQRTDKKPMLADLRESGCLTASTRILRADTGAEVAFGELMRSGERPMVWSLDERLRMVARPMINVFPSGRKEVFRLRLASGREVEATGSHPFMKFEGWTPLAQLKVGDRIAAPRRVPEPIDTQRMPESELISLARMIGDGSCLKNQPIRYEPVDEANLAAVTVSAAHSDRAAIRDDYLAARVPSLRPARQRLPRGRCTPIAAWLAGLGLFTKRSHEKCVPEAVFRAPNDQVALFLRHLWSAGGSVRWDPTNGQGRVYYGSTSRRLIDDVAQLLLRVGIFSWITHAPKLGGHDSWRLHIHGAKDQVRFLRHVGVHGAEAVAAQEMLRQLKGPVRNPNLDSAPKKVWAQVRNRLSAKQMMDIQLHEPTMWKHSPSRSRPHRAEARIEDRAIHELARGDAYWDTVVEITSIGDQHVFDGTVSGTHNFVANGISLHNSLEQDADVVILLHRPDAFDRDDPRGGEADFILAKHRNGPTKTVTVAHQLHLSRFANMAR

[15] = molecular target: T6, Protein RecA (Mycobacterium tuberculosis, UniProt P9WHJ3); assay: Fluorescence Cell-Free Homogeneous Dose Retest to Identify Inhibitors of RecA-Intein Splicing Activity. [Related pubchem assays (depositor defined):AID2097, AID2223, AID489010, AID492950]; type: functional
T6 sequence (P9WHJ3 whole entry): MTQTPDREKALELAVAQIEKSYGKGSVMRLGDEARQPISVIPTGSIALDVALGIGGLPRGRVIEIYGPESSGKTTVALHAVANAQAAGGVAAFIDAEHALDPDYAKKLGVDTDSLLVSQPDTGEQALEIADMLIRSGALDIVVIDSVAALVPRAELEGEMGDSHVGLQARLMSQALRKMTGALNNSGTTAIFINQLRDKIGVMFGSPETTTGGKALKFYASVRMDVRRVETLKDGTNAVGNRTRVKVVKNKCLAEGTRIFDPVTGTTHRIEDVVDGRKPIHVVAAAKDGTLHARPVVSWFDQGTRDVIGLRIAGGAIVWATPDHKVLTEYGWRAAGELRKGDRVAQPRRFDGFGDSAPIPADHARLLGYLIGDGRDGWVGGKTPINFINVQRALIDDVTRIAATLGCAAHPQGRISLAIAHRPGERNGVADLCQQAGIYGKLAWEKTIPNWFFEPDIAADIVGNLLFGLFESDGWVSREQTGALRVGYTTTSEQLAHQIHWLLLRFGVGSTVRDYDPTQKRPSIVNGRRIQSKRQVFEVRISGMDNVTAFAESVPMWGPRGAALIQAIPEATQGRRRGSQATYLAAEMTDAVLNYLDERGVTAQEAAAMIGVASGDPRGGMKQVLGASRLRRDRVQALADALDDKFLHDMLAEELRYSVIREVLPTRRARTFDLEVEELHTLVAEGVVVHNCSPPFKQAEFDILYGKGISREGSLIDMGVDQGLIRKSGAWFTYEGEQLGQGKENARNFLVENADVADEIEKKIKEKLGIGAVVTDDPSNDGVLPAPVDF

[16] = molecular target: Mu-type opioid receptor (Homo sapiens, UniProt P35372); assay: SAR Analysis of Antagonists of the MOR Receptor using an Image-Based Assay - Set 3. [Related pubchem assays (depositor defined):AID1777, AID1785, AID1786, AID1966, AID2133, AID2136, AID2284, AID2285, AID2420]; type: functional
[17] = molecular target: T7, Kappa-type opioid receptor (Homo sapiens, UniProt P41145); assay: SAR analysis of small molecule antagonists of the kappa opioid receptor via a luminescent beta-arrestin assay - Set 4. [Related pubchem assays (depositor defined):AID1777, AID1778, AID1785, AID1786, AID1966, AID2133, AID2136, AID2285]; type: functional
[18] = molecular target: Delta-type opioid receptor (Homo sapiens, UniProt P41143); assay: SAR Analysis of Antagonists of the DOR Receptor using an Image-Based Assay - Set 3. [Related pubchem assays (depositor defined):AID1777, AID1785]; type: functional;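 note: U2OS cells expressing DOR1 and beta-arrestin GFP stimulated with 100 nM SNC80; imaging of GFP-tagged beta-arrestin moving into spots after receptor activation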
[19] = molecular target: T7, Kappa-type opioid receptor; assay: SAR analysis of Antagonists of the Kappa Opioid Receptor (KOR) using an Image-Based Assay - Set 4. [Related pubchem assays (depositor defined):AID1777, AID1785]; type: functional
[20] = molecular target: T8, Short transient receptor potential channel 4 (Mus musculus, UniProt Q9QUQ5); assay: TRPC4 positive allosteric modulators, dose response, cell-based, HEK293 TRPC4/mu-opioid, Fluo-4 calcium, EC20 DAMGO (AID 434941); type: functional
T8 sequence (Q9QUQ5 whole entry): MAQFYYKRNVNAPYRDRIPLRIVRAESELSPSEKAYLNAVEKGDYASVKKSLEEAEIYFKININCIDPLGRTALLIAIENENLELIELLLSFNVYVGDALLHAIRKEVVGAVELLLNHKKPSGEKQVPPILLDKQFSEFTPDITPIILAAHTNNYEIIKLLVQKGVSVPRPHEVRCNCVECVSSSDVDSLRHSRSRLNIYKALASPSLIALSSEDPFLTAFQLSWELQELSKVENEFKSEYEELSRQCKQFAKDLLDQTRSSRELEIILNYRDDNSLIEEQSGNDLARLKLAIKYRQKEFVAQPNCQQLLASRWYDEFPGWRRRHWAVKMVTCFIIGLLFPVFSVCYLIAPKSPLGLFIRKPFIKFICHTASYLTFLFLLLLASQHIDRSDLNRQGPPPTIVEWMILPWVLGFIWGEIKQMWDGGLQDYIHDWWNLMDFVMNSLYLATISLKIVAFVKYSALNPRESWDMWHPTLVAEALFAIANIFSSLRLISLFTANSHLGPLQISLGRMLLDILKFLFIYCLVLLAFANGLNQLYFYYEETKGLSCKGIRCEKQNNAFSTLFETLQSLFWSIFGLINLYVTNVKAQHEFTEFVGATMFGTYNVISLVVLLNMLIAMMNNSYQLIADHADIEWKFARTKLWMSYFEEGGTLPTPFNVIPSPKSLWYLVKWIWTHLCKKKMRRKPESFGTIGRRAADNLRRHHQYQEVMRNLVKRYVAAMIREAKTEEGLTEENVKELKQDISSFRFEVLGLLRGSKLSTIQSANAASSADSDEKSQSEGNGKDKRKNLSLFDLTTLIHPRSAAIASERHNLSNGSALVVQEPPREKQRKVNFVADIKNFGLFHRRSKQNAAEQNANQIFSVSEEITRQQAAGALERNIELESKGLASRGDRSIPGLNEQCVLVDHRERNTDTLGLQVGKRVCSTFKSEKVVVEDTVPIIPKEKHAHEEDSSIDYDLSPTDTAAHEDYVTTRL

[21] = molecular target: T7, Kappa-type opioid receptor; type: functional
[22] = molecular target: T4, Beta-galactosidase; type: functional
[23] = molecular target: T7, Kappa-type opioid receptor; type: functional; remark: listed apart in the source
[24] = molecular target: Glyceraldehyde-3-phosphate dehydrogenase (Homo sapiens, UniProt P04406)
[25] = molecular target: Alkaline phosphatase, placental type (Homo sapiens, UniProt P05187); assay: PLAP enzyme inhibitors, confirmation, biochemical, luminescence (AID 1512); type: functional

T7 sequence (P41145 whole entry): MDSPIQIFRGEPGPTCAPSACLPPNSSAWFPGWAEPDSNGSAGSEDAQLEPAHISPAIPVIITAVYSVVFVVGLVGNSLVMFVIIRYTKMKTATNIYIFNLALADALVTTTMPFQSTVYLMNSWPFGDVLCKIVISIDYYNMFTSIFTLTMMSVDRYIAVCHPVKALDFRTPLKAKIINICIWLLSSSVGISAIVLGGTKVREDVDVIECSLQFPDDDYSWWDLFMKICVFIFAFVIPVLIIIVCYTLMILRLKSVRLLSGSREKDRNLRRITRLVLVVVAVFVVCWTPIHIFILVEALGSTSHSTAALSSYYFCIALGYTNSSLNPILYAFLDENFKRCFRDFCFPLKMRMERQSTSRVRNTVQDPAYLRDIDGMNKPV
T4 sequence (Q8VNN2 whole entry): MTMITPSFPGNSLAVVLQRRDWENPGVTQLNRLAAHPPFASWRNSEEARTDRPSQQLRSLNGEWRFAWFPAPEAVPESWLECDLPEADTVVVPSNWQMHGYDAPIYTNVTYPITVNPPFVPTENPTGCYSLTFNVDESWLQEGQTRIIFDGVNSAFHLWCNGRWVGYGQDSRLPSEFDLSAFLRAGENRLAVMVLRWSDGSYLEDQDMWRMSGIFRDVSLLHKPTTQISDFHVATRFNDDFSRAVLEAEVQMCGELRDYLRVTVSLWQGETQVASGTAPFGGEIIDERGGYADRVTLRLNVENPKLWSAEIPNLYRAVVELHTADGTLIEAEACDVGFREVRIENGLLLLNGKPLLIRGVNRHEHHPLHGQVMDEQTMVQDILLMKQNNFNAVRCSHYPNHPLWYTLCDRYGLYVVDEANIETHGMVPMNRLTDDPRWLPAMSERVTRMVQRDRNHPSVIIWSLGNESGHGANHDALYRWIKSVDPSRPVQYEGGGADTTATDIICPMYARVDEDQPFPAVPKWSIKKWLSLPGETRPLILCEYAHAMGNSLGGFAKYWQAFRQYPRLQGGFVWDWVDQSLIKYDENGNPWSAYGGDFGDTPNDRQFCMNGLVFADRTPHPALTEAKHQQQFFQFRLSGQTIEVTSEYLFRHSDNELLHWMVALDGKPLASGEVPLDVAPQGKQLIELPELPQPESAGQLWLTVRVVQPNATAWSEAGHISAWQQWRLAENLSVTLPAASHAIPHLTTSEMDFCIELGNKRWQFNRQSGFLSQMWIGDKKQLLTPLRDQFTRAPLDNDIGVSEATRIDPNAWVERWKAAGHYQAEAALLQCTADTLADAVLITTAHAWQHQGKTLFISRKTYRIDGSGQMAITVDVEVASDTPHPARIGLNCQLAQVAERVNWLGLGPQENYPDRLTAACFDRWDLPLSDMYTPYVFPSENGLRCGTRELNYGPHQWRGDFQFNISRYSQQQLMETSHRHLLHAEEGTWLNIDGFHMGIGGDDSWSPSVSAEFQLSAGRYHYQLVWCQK
T2 sequence (Q00975 whole entry): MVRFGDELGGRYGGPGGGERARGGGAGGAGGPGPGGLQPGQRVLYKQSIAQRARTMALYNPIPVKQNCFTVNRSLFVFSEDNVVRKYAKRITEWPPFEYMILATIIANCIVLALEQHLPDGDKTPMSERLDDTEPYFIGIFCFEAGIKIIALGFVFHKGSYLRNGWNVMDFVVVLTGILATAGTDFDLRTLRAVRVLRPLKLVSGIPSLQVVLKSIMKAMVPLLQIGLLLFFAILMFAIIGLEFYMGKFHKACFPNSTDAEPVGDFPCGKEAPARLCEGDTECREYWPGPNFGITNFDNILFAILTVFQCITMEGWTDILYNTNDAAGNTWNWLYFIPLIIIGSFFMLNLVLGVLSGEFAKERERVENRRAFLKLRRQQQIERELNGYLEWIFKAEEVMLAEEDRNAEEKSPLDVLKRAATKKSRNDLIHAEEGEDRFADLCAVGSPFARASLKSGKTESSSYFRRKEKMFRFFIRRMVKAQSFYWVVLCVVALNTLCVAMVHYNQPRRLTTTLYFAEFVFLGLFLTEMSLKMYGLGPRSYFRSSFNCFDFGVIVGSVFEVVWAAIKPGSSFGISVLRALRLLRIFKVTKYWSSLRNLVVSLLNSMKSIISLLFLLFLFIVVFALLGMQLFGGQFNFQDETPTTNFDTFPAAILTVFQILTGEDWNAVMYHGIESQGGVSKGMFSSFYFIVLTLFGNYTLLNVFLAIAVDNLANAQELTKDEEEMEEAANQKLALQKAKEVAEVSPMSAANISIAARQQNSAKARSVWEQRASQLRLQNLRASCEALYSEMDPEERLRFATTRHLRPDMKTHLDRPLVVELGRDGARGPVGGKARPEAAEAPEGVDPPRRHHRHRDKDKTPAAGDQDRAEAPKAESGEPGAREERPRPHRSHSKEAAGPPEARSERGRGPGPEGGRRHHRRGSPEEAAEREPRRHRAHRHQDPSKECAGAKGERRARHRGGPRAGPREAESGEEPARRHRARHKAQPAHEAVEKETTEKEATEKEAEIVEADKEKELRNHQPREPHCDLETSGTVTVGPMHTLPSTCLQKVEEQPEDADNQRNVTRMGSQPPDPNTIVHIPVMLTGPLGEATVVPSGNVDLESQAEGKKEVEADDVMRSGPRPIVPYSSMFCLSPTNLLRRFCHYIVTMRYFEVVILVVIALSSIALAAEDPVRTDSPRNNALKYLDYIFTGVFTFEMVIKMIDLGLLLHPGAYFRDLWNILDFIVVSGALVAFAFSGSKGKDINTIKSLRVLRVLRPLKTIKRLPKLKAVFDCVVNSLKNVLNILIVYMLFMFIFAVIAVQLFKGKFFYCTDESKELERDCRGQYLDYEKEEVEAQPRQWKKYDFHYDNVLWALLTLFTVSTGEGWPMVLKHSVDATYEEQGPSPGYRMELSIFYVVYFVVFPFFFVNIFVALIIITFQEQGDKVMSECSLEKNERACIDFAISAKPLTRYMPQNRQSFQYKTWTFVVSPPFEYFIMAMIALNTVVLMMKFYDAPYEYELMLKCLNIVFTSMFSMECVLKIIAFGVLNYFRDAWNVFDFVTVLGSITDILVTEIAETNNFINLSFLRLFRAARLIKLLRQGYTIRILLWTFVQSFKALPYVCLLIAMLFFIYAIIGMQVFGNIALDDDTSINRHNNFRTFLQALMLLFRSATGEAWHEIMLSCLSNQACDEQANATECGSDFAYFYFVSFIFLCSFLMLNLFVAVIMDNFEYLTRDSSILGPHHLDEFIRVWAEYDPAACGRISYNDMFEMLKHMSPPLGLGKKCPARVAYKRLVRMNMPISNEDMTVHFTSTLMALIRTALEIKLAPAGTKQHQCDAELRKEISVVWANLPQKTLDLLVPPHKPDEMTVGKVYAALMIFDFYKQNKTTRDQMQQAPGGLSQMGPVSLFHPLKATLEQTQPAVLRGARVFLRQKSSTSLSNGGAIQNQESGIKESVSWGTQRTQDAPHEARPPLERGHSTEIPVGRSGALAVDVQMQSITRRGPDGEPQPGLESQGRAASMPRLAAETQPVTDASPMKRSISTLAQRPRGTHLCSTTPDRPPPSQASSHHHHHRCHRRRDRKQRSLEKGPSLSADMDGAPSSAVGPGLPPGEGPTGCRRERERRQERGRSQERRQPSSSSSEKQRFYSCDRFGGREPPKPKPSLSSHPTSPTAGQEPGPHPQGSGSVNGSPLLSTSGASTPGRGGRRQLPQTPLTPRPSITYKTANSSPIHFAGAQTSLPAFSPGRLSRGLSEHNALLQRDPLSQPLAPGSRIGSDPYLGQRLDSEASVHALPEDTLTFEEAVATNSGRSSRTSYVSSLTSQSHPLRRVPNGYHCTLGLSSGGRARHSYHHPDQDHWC
T2 sequence (Q02410 whole entry): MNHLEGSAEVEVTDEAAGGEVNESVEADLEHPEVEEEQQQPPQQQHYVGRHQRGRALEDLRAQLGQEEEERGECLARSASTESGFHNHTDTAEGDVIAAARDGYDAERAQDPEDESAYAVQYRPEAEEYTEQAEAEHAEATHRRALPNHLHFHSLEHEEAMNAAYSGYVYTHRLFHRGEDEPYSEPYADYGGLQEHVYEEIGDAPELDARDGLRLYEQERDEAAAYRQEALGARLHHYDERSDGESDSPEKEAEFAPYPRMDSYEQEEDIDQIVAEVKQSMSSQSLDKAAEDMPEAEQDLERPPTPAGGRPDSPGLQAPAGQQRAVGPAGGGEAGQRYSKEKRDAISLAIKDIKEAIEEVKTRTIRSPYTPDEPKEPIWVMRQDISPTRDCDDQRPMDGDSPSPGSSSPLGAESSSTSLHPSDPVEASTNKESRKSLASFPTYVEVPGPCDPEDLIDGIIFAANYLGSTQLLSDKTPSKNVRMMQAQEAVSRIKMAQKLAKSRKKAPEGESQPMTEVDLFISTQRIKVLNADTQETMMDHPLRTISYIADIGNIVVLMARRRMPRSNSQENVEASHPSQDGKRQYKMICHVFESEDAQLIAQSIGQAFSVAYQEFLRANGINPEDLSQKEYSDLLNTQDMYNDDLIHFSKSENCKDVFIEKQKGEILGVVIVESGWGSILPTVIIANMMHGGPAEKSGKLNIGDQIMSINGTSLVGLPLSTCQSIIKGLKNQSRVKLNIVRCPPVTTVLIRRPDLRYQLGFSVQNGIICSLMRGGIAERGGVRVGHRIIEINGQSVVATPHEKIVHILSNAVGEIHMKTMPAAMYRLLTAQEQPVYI
Sequence of G-protein coupled receptor 55 (Q9Y2T6 whole entry, the tested form may be a part): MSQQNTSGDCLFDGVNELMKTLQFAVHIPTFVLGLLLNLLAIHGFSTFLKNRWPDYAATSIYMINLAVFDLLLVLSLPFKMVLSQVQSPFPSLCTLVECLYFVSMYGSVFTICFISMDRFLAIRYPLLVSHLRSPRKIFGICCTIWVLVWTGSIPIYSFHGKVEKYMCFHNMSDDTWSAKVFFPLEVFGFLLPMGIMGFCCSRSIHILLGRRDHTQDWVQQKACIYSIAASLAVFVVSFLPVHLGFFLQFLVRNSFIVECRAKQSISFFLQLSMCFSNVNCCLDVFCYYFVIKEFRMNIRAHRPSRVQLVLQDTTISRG

CC(=O)Oc1ccc2c(C)cc(=O)oc2c1
IC50 [1]: > 50 µM (inconclusive)
IC50 [2]: 16.5 µM (active)

C=CCOc1ccc(CC2C(=O)N(C)C(=O)N(C)C2=O)cc1
IC50 [3]: 4.93 µM (active)
IC50 [4]: > 50 µM (not active)
IC50 [5]: > 50 µM (inactive)

C=CCN(CC=C)C(=S)NC(=O)c1ccc(-c2ccccc2)cc1
EC50 [6]: 1.82 µM (active)
CC50 [7]: > 40 µM (active)
EC50 [8]: 9.2 µM (active)
IC50 [9]: > 66.6 µM (inactive)

Cc1ccc(S(=O)(=O)N(Cc2ccc(Cl)cc2)c2ccccc2C(=O)NCc2ccco2)cc1
EC50 [10]: > 32 µM (inactive)
IC50 [11]: > 69.5 µM (inactive)
IC50 [12]: > 7.72 µM (active)

N#CC1=C(N)Oc2[nH]nc(-c3ccccc3)c2C1c1cccc(OC(=O)N2CCOCC2)c1 (stereo not given)
CC50 [13]: 31.4 µM (active)
AC50 [14]: 4.72 µM (active)
EC50 [15]: 1.19 µM (active)

CC(C)N(CCNC(=O)c1ccc(CNS(=O)(=O)c2ccc(C(C)(C)C)cc2)cc1)Cc1ccccc1
IC50 [16]: > 32 µM (inactive)
IC50 [17]: 2.66 µM (active)
IC50 [18]: > 32 µM (inactive)
IC50 [19]: 0.79 µM (active)

O=[N+]([O-])c1cc(C(F)(F)F)ccc1NC1CCN(Cc2ccccc2)C1 (stereo not given)
EC50 [20]: 0.67 µM (active)

CCCCC/C(=N/O)c1c(C)[nH]c2ccccc12
IC50 [21]: > 31.5 µM (inactive)
EC50 [22]: > 31.5 µM (inactive)
IC50 [23]: > 32 µM

CC(C)NC(=O)c1cc(-c2cc(F)c(Cl)cc2Cl)n[nH]1
IC50 [24]: > 100 µM (not active)
IC50 [25]: > 100 µM (inactive)
